Laboratory results taken from article PMC12670405, “Second-Generation AURKA-Targeting PROTACs: Structural Optimization toward in Vivo Degradation in Neuroblastoma” (Journal of Medicinal Chemistry, 2025).
Read-outs that look alike come from different tables or passages of the source.

Tests used:
Format in all cases: cell-based, human
[1] = test system: MYCN; assay: MYCN protein levels, Simple Western; conditions: for MYCN codepletion: IMR-32, 500 nM, 24h postexposure; for DC50: read-out: MYCN DC50 24h
Experimental: Cells were seeded in T-25 flasks at different densities ranging from 1 to 2 million cells per flask and allowed to adhere for 1–2 days. In experiments involving compound treatment, this was done by medium replacement containing the compound(s) of interest in their corresponding concentrations. In competition binding experiments, cells were first pretreated with an excess of MK-5108, thalidomide or MG-132 for 1 h by shaking gently at room temperature prior to addition of SK4454 or SK5527. All samples were normalized to contain the same percentage of DMSO as the negative DMSO controls. Cells were harvested on ice at their respective time points by scraping, washed with ice-cold PBS to collect remaining cells, and centrifuged (2500 rpm, 4 °C). A second washing and centrifugation step was performed prior to collection of the final cell pellets which were then snap-frozen in liquid nitrogen and kept frozen at −80 °C until further processing. Lysis of cell pellets occurred in cold RIPA buffer (0.5% w/v Sodium Deoxycholate, 150 mM NaCl, 50 mM TrisHCl pH 7.5, 0.1% w/v SDS, 1% w/v NP-40) supplemented with protease and phosphatase inhibitors (Roche, #11836145001, #04906845001) by rotating gently at 4 °C for 1h, followed by a centrifugation step for 10 min (10,000 rpm, 4 °C). The supernatant was collected and concentrations of the obtained protein lysates were measured using the Pierce BCA Protein Assay Kit (Thermo Fisher Scientific, #23227).
Simple Western analyses were performed with the Wes instrument (Bio-Techne) using the 12–230 kDa Wes Separation module and the EZ standard pack reagent 1 (Biotechne, #SM-W001, #PS-ST01EZ-8) following the manufacturer’s protocol. Protein lysates were loaded at 0.8 μg/μL under denaturing conditions (0.2 μg/μL for MYCN detection). Chemiluminescence peaks were generated by the Compass Software (Bio-Techne) and the area under the peaks calculated using the Gaussian fit method. Per lane, quantified data were always normalized to that of the loading control (Vinculin) prior to calculating fold changes relative to the negative DMSO control. Mean fold changes are calculated from 3 individual experiments. A list of the primary and secondary antibodies used can be found in the Supporting Information (Supplementary Table S7).
Graphs were generated using GraphPad Prism Software (version 10.1.2) or RStudio (R-4.3.2). All dose–response curves were computed on GraphPad Prism using the Variable Slope (four parameters) equation. Absolute half-maximal degradation (DC50), growth inhibitory (GI50) and enzymatic inhibitory (IC50) concentrations, as well as inhibition constants (Ki) were derived from dose–response curves via interpolation. Statistical tests were performed on GraphPad Prism and detailed in the figure legends. Unless otherwise stated, “n” in the figure legends indicates the number of independent experiments conducted at different times.

[2] = test system: caspase 3/7 in SK-N-BE(2)-C; assay: Caspase-Glo 3/7 assay; conditions: 48 h, 1 μM tariquidar
Experimental: (§1) Neuroblastoma cells were seeded in 384-well plates at different densities ranging from 1200 to 5000 cells/well and allowed to adhere overnight. Compound treatment was performed using the D300e Digital Dispenser (Tecan) in duplicate. At the 48 h time point, a Caspase-Glo 3/7 Assay (Promega, #G8090) was performed following the manufacturer’s protocol, but adapted to add a 1:2 ratio of Caspase-Glo 3/7 reagent volume to sample volume. The readout was performed using the GloMax Discover Microplate Reader (Promega). Caspase 3/7 luminescence values were normalized to that of the DMSO negative control, and mean relative caspase 3/7 luminescence values were calculated from 3 individual experiments.

[3] = test system: caspase 3/7 in NGP; assay: Caspase-Glo 3/7 assay; conditions: 48 h, 1 μM tariquidar
Experimental: as §1

| Structure (SMILES) | MYCN codepletion [1] [%] | DC50 ([1]; IMR-32) [nM] | DC50 ([1]; NGP) [nM] | DC50 ([1]; SJNB-8) [nM] | induction of apoptosis (caspase 3/7) upon cotreatment with tariquidar (in words) [2] | induction of apoptosis (caspase 3/7) upon cotreatment with tariquidar (in words) [3] |
| --- | --- | --- | --- | --- | --- | --- |
| Cc1cc(Nc2ccc(F)c(CC3(C(=O)N4CCC(CN5CCN(c6ccc(N7CCC(=O)NC7=O)cn6)CC5)CC4)CCN(Cc4cccc(Cl)c4F)CC3)n2)n[nH]1 [SK4454] | ~50 | 117 | 1360 | 1390 | significant increased induction of apoptosis | no difference |
| Cc1cc(Nc2ccc(F)c(CC3(C(=O)N4CCC(F)(CN5CCN(c6ccc(N7CCC(=O)NC7=O)cn6)CC5)CC4)CCN(Cc4cccc(Cl)c4F)CC3)n2)n[nH]1 [SK5527] | ~50 | 236 | 89 | 772 | significant increased induction of apoptosis | no difference |
